Data published in patent US20250074869A1, “AMINO-COMBRETASTATIN DERIVATIVE AND USE THEREOF” (priority 2020, published 2025).
Counter-ions that a name gives are not always drawn.

What was measured:
[1] = Acute toxicity study in animals (oral LD50); conditions: mouse, in vivo, male ICR mice, intragastric administration, observed 14 days, hydrochloride salts
Excerpt: Male ICR mice weighed 23±2 g, clean grade, were selected. The route of administration was intragastric (ig) administration, which is consistent with the intended oral route for clinical use.
Mice were randomly divided into 8 groups by weight: the blank control group, Example 1 group, Example 5 group, Example 11 group, Example 12 group, Example 13 group, Example 14 group and control group. Among these, the control group received amino-combretastatin serinamide hydrochloride as the control (hereinafter referred to as control).
Preparation of the compounds used in the example groups: The compounds obtained in Example 1, Example 3. Example 4. Example 5. Example 6. Example 7. Example 8. Example 9. Example 10. Example 11. Example 12, Example 13 and Example 14 were prepared into hydrochloride salts according to the method disclosed in Example 2.
Pre-treatment: […] were deprived of food but not water for 12 h before the study. and randomized into groups of 10 by body weight. The treatment groups were intragastrically administered once at 0.25 mL/10 g body weight, and the water control group received an equivalent amount of distilled water through intragastric administration. The LD100 value (the amount for 100% death), LD0 (the amount for 0 death) and the corresponding range r value between the dose groups were calculated, and LD50 was determined.
Study procedures: 160 mice were randomized into 8 groups of 20 mice by body weight. After deprivation of food but not water for 12 h before the study, each group was intragastrically given the compound once at 0.3 mL/10 g body weight. Since no death was observed after 12 h, the second dose was given. The control group received equivalent volumes of water. The daily dose of each group was calculated; the control group received equal volumes of water and was subjected to an acute toxicity study for observation and the body weight of the mice was recorded daily for 14 days.

[2] = tested on: human liver cancer cells Bel-7402; assay: Efficacy study in nude mouse with xenograft tumor, Bel-7402; type: in vivo; conditions: BALB/cA-nude mice, subcutaneous xenograft, 50 mg/kg intragastric once daily for 21 days, dosed as hydrochloride; for inhibition in vivo at 50 mg/kg: Mus musculus, Bel-7402, sc, 504 h, read-out: % tumor inhibition (D21) Bel-7402
Procedure: (§1) BALB/cA-nude mice aged 6 to 7 weeks were purchased from Shanghai Slac Laboratory Animal Co., Ltd. The nude mice were subcutaneously grafted with human liver cancer cells Bel-7402, colon cancer cells HT-29, gastric cancer cells SGC-7901 or non-small cell lung cancer cells A549. After the tumor grew to 100 to 250 mm^3, the animals were randomized (d0). The tumor volumes and body weights were measured twice or thrice a week, and the data were recorded. Tumor volume (V) was calculated as follows:
(§2) [formula] • wherein a and b represent length and width, respectively; T and C are the tumor volumes at the end of study; T0 and C0 are the tumor volumes at the start of study.
(§3) All samples were diluted to the desired concentration with 50% PEG400 in distilled water. The regimen was once daily for 21 days at 50 mg/kg mouse body weight through intragastric administration, and 50 mg/kg for the control. The compounds obtained in Examples 1, 3, 4, 5, 6, 7, 8, 9, 10, 11, 12, 13 and 14 and the control were prepared into corresponding hydrochloride as the dosing compounds according to the method disclosed in Example 2 to investigate their efficacy on human liver cancer cell Bel-7402, colon cancer cell HT-29, gastric cancer cell SGC-7901 or non-small cell lung cancer cell A549 xenograft tumors in nude mice and to compare the compounds with the control (prepared as in Example 16).

[3] = tested on: non-small cell lung cancer cells A549; assay: Efficacy study in nude mouse with xenograft tumor, A549; type: in vivo, human; conditions: BALB/cA-nude mice, subcutaneous xenograft, 50 mg/kg intragastric once daily for 21 days, dosed as hydrochloride; for inhibition in vivo at 50 mg/kg: Mus musculus, A549, sc, 504 h, read-out: % tumor inhibition (D21) A549
Procedure: as §1, §2, §3

colon cancer cells HT-29 = assay: Efficacy study in nude mouse with xenograft tumor, HT-29; type: in vivo, human; conditions: BALB/cA-nude mice, subcutaneous xenograft, 50 mg/kg intragastric once daily for 21 days, dosed as hydrochloride; for inhibition in vivo at 50 mg/kg: Mus musculus, HT-29, sc, 504 h, read-out: % tumor inhibition (D21) HT-29
Procedure: as §1, §2, §3

[4] = tested on: gastric cancer cells SGC-7901; assay: Efficacy study in nude mouse with xenograft tumor, SGC-7901; type: in vivo, human; conditions: BALB/cA-nude mice, subcutaneous xenograft, 50 mg/kg intragastric once daily for 21 days, dosed as hydrochloride; for inhibition in vivo at 50 mg/kg: Mus musculus, SGC-7901, sc, 504 h, read-out: % tumor inhibition (D21) SGC-7901
Procedure: as §1, §2, §3

Structure (SMILES) | inhibition in vivo at 50 mg/kg [2] [%] | inhibition in vivo at 50 mg/kg [3] [%] | inhibition in vivo at 50 mg/kg (colon cancer cells HT-29) [%] | inhibition in vivo at 50 mg/kg [4] [%] | LD50 at 14 days [1] [mg/kg] | other results
CCOc1ccc(/C=C\c2cc(OC)c(OC)c(OC)c2)cc1NC(=O)CCNCC(F)F [Hydrochloride of Example 13] | – | – | – | – | – | LD50 [1]: 1000 mg/kg
CCCCN(CCCC)CCC(=O)Nc1cc(/C=C\c2cc(OC)c(OC)c(OC)c2)ccc1OCC [Example 5, (Z)-1-(3,4,5-trimethoxyphenyl)-2-((3-(bis(2-n-butyl)amino)propionamide)-4-ethoxyphenyl)ethylene] | 88 | 63 | 82 | 80 | – | –
CCCN(CCC)CCC(=O)Nc1cc(/C=C\c2cc(OC)c(OC)c(OC)c2)ccc1OCC(F)(F)F [Hydrochloride of Example 7] | – | – | – | – | 1200 | –
CCC(C)N(CCC(=O)Nc1cc(/C=C\c2cc(OC)c(OC)c(OC)c2)ccc1OC(F)F)C(C)CC (stereo not shown) [Example 10, (Z)-1-(3,4,5-trimethoxyphenyl)-2-((3-(bis(2-n-butyl)amino)propionamide)-4-difluoromethoxyphenyl)ethylene] | – | – | – | – | – | % tumor inhibition (D21) Bel-7402 [2]: 86%; % tumor inhibition (D21) A549 [3]: 60%; % tumor inhibition (D21) HT-29 (colon cancer cells HT-29): 81%; % tumor inhibition (D21) SGC-7901 [4]: 73%
CCCN(CCC)CCC(=O)Nc1cc(/C=C\c2cc(OC)c(OC)c(OC)c2)ccc1OCC [Example 1] | 92 | 69 | 93 | 82 | – | –
CCOc1ccc(/C=C\c2cc(OC)c(OC)c(OC)c2)cc1NC(=O)CCNCC(F)F [Example 13, (Z)-1-(3,4,5-trimethoxyphenyl)-2-((3-(2,2-difluoroethylamino)propionamide)-4-ethoxyphenyl)ethylene] | 82 | 63 | 77 | 72 | – | –
CCOc1ccc(/C=C\c2cc(OC)c(OC)c(OC)c2)cc1NC(=O)CCN(CC)CC [Example 4, (Z)-1-(3,4,5-trimethoxyphenyl)-2-((3-(bis(2-ethyl)amino)propionamide)-4-ethoxyphenyl)ethylene] | 90 | 67 | 91 | 76 | – | –
COc1ccc(/C=C\c2cc(OC)c(OC)c(OC)c2)cc1NC(=O)CCN(CCO)CCO [Hydrochloride of Example 12] | – | – | – | – | – | LD50 [1]: 1100 mg/kg
COc1ccc(/C=C\c2cc(OC)c(OC)c(OC)c2)cc1NC(=O)CCN(CCO)CCO [Example 12, (Z)-1-(3,4,5-trimethoxyphenyl)-2-((3-(bis(2-hydroxyethyl)amino)propionamide)-4-methoxyphenyl)ethylene] | 79 | 58 | 79 | 77 | – | –
CCOc1ccc(/C=C\c2cc(OC)c(OC)c(OC)c2)cc1NC(=O)CCN(CC)CC [Hydrochloride of Example 4] | – | – | – | – | 1100 | –
CCCN(CCC)CCC(=O)Nc1cc(/C=C\c2cc(OC)c(OC)c(OC)c2)ccc1OC [Hydrochloride of Example 3] | – | – | – | – | 1000 | –
CCOc1ccc(/C=C\c2cc(OC)c(OC)c(OC)c2)cc1NC(=O)CCNCC(OC)OC [Hydrochloride of Example 14] | – | – | – | – | 1000 | –
CCCN(CCC)CCC(=O)Nc1cc(/C=C\c2cc(OC)c(OC)c(OC)c2)ccc1OC(F)F [Example 8, (Z)-1-(3,4,5-trimethoxyphenyl)-2-((3-(bis(2-n-propyl)amino)propionamide)-4-difluoromethoxyphenyl)ethylene] | 90 | 67 | 88 | 71 | – | –
CCCCN(CCCC)CCC(=O)Nc1cc(/C=C\c2cc(OC)c(OC)c(OC)c2)ccc1OC [Hydrochloride of Example 6] | – | – | – | – | – | LD50 [1]: 900 mg/kg
CCOc1ccc(/C=C\c2cc(OC)c(OC)c(OC)c2)cc1NC(=O)CCNCC(OC)OC [Example 14, (Z)-1-(3,4,5-trimethoxyphenyl)-2-((3-(2,2-dimethoxyethylamino)propionamide)-4-ethoxyphenyl)ethylene] | 82 | 66 | 71 | 80 | – | –
CCCN(CCC)CCC(=O)Nc1cc(/C=C\c2cc(OC)c(OC)c(OC)c2)ccc1OCC [Hydrochloride of Example 1, (Z)-1-(3,4,5-trimethoxyphenyl)-2-((3-(bis(2-n-propyl)amino)propionamide)-4-ethoxyphenyl)ethylene hydrochloride] | – | – | – | – | 1200 | –
CCCCN(CCCC)CCC(=O)Nc1cc(/C=C\c2cc(OC)c(OC)c(OC)c2)ccc1OCC(F)(F)F [Example 9, (Z)-1-(3,4,5-trimethoxyphenyl)-2-((3-(bis(2-n-butyl)amino)propionamide)-4-trifluoroethoxyphenyl)ethylene] | 79 | 61 | 85 | 80 | – | –
CCOc1ccc(/C=C\c2cc(OC)c(OC)c(OC)c2)cc1NC(=O)CCN(CCO)CCO [Hydrochloride of Example 11] | – | – | – | – | 1100 | –
CCCCN(CCCC)CCC(=O)Nc1cc(/C=C\c2cc(OC)c(OC)c(OC)c2)ccc1OCC [Hydrochloride of Example 5] | – | – | – | – | 1200 | –
CCCCN(CCCC)CCC(=O)Nc1cc(/C=C\c2cc(OC)c(OC)c(OC)c2)ccc1OC [Example 6, (Z)-1-(3,4,5-trimethoxyphenyl)-2-((3-(bis(2-n-butyl)amino)propionamide)-4-methoxyphenyl)ethylene] | 89 | 62 | 90 | 81 | – | –
CCCN(CCC)CCC(=O)Nc1cc(/C=C\c2cc(OC)c(OC)c(OC)c2)ccc1OCC(F)(F)F [Example 7, (Z)-1-(3,4,5-trimethoxyphenyl)-2-((3-(bis(2-n-propyl)amino)propionamide)-4-trifluoroethoxyphenyl) ethylene] | 81 | 66 | 79 | 65 | – | –
CCCN(CCC)CCC(=O)Nc1cc(/C=C\c2cc(OC)c(OC)c(OC)c2)ccc1OC [Example 3, (Z)-1-(3,4,5-trimethoxyphenyl)-2-((3-(bis(2-n-propyl)amino)propionamide)-4-methoxyphenyl)ethylene] | 89 | 65 | 88 | 78 | – | –
CCCN(CCC)CCC(=O)Nc1cc(/C=C\c2cc(OC)c(OC)c(OC)c2)ccc1OC(F)F [Hydrochloride of Example 8] | – | – | – | – | 1100 | –
CCOc1ccc(/C=C\c2cc(OC)c(OC)c(OC)c2)cc1NC(=O)CCN(CCO)CCO [Example 11, (Z)-1-(3,4,5-trimethoxyphenyl)-2-((3-(bis(2-hydroxyethyl)amino)propionamide)-4-ethoxyphenyl)ethylene] | 88 | 63 | 89 | 65 | – | –
CCCCN(CCCC)CCC(=O)Nc1cc(/C=C\c2cc(OC)c(OC)c(OC)c2)ccc1OCC(F)(F)F [Hydrochloride of Example 9] | – | – | – | – | 1000 | –
